From patent US8163770B2, “Benzoxathiin derivative” (MSD. K. K., priority 2005, dated 2012)
Where two headings read alike, the source gives them in different places.

Legend:
histamine-H3 receptor = target: T1, histamine-H3 receptor (Rattus norvegicus, UniProt Q9QYN8); test: Test for antagonistic effect to water-drinking action induced by histamine-H3 receptor selective agonist, R-α-methylhistamine; type: in vivo; conditions: 10 mg/kg oral, 2 hours before R-α-methylhistamine, water drunk for 1 hour
T1 construct: from tissue; host or cells: living male rat
Protocol: Under anesthesia with ketamine xylazine (74 and 11 mg/kg intraabdominal single administration), a brain stereotaxic device was set in the third ventricle of a male DS rat (7 to 10-week age, 200 to 300 g), and a chronic guide cannula (26 gauge, length 11 mm) was inserted into it and fixed with a dental resin. The position of the tip of the guide cannula is at 2.2 mm after the bregma on the midline, and at a depth of 8 mm from the surface of the skull. After a restoration term of about 1 week, R-α-methylhistamine (0.3 μg/1 μL/head, 30% propylene glycol liquid) was administered into the third ventricle. The test compound suspended in an aqueous 0.5% methyl cellulose solution was orally administered to the rat before 2 hours before the R-α-methylhistamine administration; and after the R-α-methylhistamine administration, the amount of water drunk by the rat for 1 hour was measured.

[1] = Test for brain/cerebrospinal fluid transition; type: in vivo; conditions: SD male rat, 2 hours after oral administration (10 mg/kg)
Protocol: The test compound was orally or intravenously administered to an SD male rat (7 to 10-week age, 200 to 400 g), and under anesthesia with ether for a predetermined period of time, the whole blood was collected from it through the abdominal aorta thereof using a heparin-processed syringe. Next, the head skin was cut, and a dental 30 G needle was stuck into the cervical spine to run through the subarachnoid cavity. Via a tube connected to the dental 30 G needle, from 50 to 100 μL of the cerebrospinal fluid was collected in a 1-mL syringe, and then the brain was taken out. The blood sample was centrifuged (4° C., 6000 revolutions, 10 minutes), and the resulting plasma was stirred with ethanol (containing an internal standard substance) in an amount of three times thereof added to it. The brain sample was homogenized with 2 mL of water added thereto; and a part of it was taken out and stirred with ethanol (containing an internal standard substance) in an amount of three times thereof added to it. The cerebrospinal fluid was stirred with ethanol (containing an internal standard substance) in an amount of three times thereof added to it. The above samples were left at −20° C. for 20 minutes, then centrifuged (4° C., 12,000 g, 10 minutes), and the supernatant was analyzed through LC/MS/MS. According to a relative calibration curve method, the compound concentration in the plasma, in the brain and in the cerebrospinal fluid was determined.

T1 sequence (Q9QYN8 whole entry): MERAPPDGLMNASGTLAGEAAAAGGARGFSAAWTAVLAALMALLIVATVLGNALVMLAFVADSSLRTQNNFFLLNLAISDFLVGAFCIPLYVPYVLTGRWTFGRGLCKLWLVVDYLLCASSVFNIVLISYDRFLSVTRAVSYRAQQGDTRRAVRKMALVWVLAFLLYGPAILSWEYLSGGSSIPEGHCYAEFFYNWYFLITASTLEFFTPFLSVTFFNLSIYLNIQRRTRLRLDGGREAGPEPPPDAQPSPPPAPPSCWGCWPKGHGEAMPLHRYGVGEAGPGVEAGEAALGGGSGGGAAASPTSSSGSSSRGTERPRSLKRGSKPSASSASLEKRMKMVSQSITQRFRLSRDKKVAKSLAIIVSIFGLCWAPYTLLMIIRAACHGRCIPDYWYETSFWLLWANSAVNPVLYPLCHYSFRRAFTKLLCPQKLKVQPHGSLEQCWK

- inhibition of the increase in the water drinking induced by R-α-methylhistamine in the third ventricle (histamine-H3 receptor): significantly inhibited
- concentration in the brain [1]: 6.96 nmol/g
- concentration at 2 h ([1]; cerebrospinal fluid, read-out: concentration in the cerebrospinal fluid): 174 nM
- concentration at 2 h ([1]; plasma, read-out: concentration in the plasma): 980 nM
SMILES: C[C@H]1[C@H](c2ccc(OCCCN3CCCC3)cc2)Oc2ccccc2S1(=O)=O (single isomer, unassigned) [(2S*,3S*)-2,3-dihydro-3-methyl-2-[4-[3-(1-pyrrolidinyl)propoxy]phenyl]-1,4-benzoxathiin-4,4-dioxide]
